The results in this text go back to ChEMBL document CHEMBL5104138, “Discovery of pyridyl urea sulfonamide inhibitors of NaV1.7” (Bioorg Med Chem Lett, 2022).

Data set [1] concerns the target T1, Cytochrome P450 3A4 (Homo sapiens, UniProt P08684). The data set is described as follows: Time dependent inhibition of CYP3A4 in human liver microsomes using midazolam as substrate incubated for 30 mins. It is filed as ADME, Microsome. Background: Microsomes from liver hold many membrane-bound enzymes, among them those of drug oxidation.
Data set [2] can be described thus: Lipophilicity, logD of compound at pH 7.4. It is filed as physicochemical. Particulars: buffer.
The target of data set [3] is T1, Cytochrome P450 3A4. The data set is described as follows: Time dependent inhibition of CYP3A4 in human liver microsomes using midazolam as substrate preincubated for 30 mins followed by substrate addition. In kind it is ADME, Microsome.
The target of data set [4] is T2, Sodium channel protein type 9 subunit alpha (Homo sapiens, UniProt Q15858). The data set is described as follows: Inhibition of human Nav1.7 by PatchXpress assay.
Target sequence in this assay (Q15858 whole entry): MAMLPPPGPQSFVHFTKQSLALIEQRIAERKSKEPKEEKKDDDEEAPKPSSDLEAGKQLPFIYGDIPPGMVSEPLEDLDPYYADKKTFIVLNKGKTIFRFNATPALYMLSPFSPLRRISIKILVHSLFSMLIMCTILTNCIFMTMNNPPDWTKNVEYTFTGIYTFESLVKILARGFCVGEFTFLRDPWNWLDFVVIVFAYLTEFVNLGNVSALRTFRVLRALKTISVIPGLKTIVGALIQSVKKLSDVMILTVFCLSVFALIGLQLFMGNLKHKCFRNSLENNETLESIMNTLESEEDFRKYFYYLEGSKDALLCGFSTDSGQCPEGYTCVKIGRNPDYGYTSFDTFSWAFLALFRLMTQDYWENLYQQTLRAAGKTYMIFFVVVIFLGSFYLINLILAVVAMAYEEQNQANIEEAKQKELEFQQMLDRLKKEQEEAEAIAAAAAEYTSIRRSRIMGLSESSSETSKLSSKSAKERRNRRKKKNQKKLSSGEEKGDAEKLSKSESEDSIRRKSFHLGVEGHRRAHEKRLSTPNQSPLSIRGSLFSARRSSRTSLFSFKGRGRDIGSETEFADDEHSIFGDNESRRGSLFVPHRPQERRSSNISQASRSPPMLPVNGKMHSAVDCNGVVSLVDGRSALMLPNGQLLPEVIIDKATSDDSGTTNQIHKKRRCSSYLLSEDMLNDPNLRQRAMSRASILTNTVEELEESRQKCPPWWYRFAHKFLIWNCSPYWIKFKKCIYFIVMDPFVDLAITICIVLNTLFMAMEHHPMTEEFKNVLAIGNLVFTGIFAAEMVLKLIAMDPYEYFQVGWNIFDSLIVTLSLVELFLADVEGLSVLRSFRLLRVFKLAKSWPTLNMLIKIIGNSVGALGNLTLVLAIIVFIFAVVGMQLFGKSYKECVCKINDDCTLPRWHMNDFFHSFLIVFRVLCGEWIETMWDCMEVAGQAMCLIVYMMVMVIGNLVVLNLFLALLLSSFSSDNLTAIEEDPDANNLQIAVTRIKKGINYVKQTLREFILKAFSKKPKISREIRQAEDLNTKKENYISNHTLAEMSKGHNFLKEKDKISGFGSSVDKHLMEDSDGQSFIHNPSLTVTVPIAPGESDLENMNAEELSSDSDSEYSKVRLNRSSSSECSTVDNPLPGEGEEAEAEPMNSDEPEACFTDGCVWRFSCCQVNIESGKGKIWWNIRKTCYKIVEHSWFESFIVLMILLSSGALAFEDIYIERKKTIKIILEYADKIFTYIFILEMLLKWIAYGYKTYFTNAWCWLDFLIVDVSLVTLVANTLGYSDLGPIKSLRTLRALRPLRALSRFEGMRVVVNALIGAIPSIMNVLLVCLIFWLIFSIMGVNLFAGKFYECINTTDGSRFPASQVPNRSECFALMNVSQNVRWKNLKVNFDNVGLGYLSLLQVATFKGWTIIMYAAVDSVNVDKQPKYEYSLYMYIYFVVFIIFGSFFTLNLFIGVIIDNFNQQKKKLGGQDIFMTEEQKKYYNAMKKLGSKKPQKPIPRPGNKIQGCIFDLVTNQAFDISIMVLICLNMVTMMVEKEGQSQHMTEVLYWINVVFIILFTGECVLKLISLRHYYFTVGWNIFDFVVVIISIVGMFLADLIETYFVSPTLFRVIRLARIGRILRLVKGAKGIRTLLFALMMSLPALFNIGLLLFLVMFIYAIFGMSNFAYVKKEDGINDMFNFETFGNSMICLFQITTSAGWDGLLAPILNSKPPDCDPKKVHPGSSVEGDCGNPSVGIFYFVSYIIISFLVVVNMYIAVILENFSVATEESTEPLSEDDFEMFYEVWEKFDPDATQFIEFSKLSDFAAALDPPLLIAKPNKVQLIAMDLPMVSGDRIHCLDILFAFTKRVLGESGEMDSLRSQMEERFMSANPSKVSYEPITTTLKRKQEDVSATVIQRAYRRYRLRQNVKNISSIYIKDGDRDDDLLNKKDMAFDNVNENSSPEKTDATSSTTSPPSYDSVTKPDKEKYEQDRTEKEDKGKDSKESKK
The conditions of data set [5]: rat, in vivo, iv, 0.5 mg/kg.
Description: Unbound clearance in rat at 0.5 mg/kg, iv
Data set [6] is described as follows: Clearance in rat at 0.5 mg/kg, iv. Particulars: in vivo.
The target in data set [7] is T2, Sodium channel protein type 9 subunit alpha. Kind of data set: Inhibition of human Nav1.7 at 1 uM by PatchXpress assay relative to control.
Target sequence in this assay (Q15858 whole entry, looked up): as the sequence (Q15858 whole entry) above
For data set [8], the system named is Mus musculus. The data set is described as follows: Antinociceptive activity in UV burn-induced thermal hyperalgesia mouse model assessed as reduction in latency time at 30 mg/kg, po relative to control. Further details: scale not given: the % may be the effect or the level left. It is filed as functional.
Data set [9] can be described thus: Passive permeability of compound. Particulars: not told; read-out: permeability. In kind it is ADME.
The test system of data set [10] is Mus musculus. Kind of data set: Antinociceptive activity in capsaicin-induced licking mouse model assessed as reduction in time spent on licking at 3 mg/kg, po relative to control. In kind it is functional. Further details: scale not given: the % may be the effect or the level left.
Data set [11] in a line: AUC in mouse at 100 mg/kg, po. It is filed as ADME, organism-based. On the set-up: dose 100 mg/kg, route po. The conditions noted are these: in vivo.
Data set [12] in a line: Oral bioavailability in rat at 10 mg/kg. In kind it is ADME, organism-based. Particulars: in vivo.
Data set [13] concerns Mus musculus. Kind of data set: Antinociceptive activity in capsaicin-induced licking mouse model assessed as reduction in time spent on licking at 10 mg/kg, po relative to control. It is filed as functional. Further details: scale not given: the % may be the effect or the level left.
Data set [14] deals with Mus musculus. Kind of data set: Antinociceptive activity in mouse model of Histamine-induced itching assessed as reduction in scratching bouts at 10 mg/kg, po relative to control. In kind it is functional. Further details: scale not given: the % may be the effect or the level left.
Data set [15] in a line: Clearance in mouse. In kind it is ADME, organism-based. Particulars: in vivo.
The nature of data set [16]: AUC in rat at 10 mg/kg, po. In kind it is ADME, organism-based. On the set-up: dose 10 mg/kg, route po. The conditions noted are these: in vivo.
The subject of data set [17] is Mus musculus. The data set is described as follows: Antinociceptive activity in mouse model of Histamine-induced itching assessed as reduction in scratching bouts at 3 mg/kg, po relative to control. In kind it is functional. Further details: scale not given: the % may be the effect or the level left.
Data set [18] can be described thus: Unbound clearance in mouse. It is filed as ADME, organism-based. The conditions noted are these: in vivo.
The nature of data set [19]: Unbound clearance in dog at 0.25 mg/kg, iv. It is filed as ADME, organism-based, Canis lupus familiaris. Particulars: in vivo.
A short description of data set [20]: AUC in dog at 2 mg/kg, po. It is filed as ADME, organism-based, Canis lupus familiaris. On the set-up: dose 2 mg/kg, route po. Particulars: in vivo.
Data set [21] is described as follows: Oral bioavailability in mouse at 100 mg/kg. Particulars: in vivo. In kind it is ADME, organism-based.
A short description of data set [22]: Permeability in MDCK cells. It is filed as ADME, cell-based, Canis lupus familiaris. Particulars: dog, read-out: permeability.
Data set [23] is described as follows: half life in dog at 2 mg/kg, po. The conditions noted are these: in vivo. It is filed as ADME, organism-based, Canis lupus familiaris.
Data set [24] is described as follows: Half life in mouse at 100 mg/kg, po. In kind it is ADME, organism-based. The conditions noted are these: in vivo.
The target in the next data set is Cytochrome P450 2C9 (Homo sapiens, UniProt P11712). The data set is described as follows: Inhibition of CYP2C9 (unknown origin). It is filed as ADME.
Data set [25] has as its system Mus musculus. The data set is described as follows: Antinociceptive activity in mouse model of Histamine-induced itching assessed as reduction in scratching bouts at 30 mg/kg, po relative to control. In kind it is functional. On the set-up: scale not given: the % may be the effect or the level left.
A short description of data set [26]: Half life in rat at 10 mg/kg, po. In kind it is ADME, organism-based. Particulars: in vivo.
Data set [27] deals with Sodium channel protein type 5 subunit alpha (Homo sapiens, UniProt Q14524). Kind of data set: Inhibition of human Nav1.5 at -50 mV holding potential by PatchXpress assay.
Data set [28] can be described thus: Clearance in dog at 0.25 mg/kg, iv. Particulars: in vivo. It is filed as ADME, organism-based, Canis lupus familiaris.
Another data set deals with T3, PXR (NR1I2) (Homo sapiens, UniProt O75469).
T3 sequence (O75469 whole entry): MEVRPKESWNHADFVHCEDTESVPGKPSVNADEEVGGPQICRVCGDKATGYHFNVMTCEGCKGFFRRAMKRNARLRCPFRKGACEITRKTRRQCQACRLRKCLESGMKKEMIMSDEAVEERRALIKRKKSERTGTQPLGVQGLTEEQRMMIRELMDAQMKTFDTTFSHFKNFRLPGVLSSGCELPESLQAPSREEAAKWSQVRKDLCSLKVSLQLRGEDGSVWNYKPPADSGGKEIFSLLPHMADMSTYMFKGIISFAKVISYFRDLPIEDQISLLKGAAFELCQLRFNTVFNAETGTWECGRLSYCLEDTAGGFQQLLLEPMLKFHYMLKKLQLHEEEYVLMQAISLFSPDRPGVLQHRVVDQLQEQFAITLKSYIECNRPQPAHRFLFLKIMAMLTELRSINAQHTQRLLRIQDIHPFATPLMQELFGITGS
Kind of data set: Activation of human PXR at 10 uM relative to control. In kind it is toxicity. The conditions noted are these: read-out: Activity.

The nature of data set [29]: Oral bioavailability in dog at 2 mg/kg. It is filed as ADME, organism-based, Canis lupus familiaris. Particulars: in vivo.
The nature of data set [30]: Solubility of the compound at pH 7.4. It is filed as physicochemical. Particulars: buffer.

≈ marks a conversion by molar mass, not a printed value.

T1 sequence (P08684 whole entry): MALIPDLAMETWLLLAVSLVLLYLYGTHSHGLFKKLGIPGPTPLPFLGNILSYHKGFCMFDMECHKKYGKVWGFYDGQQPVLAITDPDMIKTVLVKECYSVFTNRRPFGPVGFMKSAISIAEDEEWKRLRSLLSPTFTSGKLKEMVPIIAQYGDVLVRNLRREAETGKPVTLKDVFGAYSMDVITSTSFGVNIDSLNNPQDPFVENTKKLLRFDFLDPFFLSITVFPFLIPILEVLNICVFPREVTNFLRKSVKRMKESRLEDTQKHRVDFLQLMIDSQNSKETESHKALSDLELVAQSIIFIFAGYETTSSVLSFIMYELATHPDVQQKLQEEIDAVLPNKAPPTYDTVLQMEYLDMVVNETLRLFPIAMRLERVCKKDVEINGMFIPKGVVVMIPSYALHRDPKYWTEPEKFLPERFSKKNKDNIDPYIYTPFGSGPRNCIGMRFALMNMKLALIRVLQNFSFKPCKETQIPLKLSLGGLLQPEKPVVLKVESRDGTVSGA
Sequence of Sodium channel protein type 5 subunit alpha (Q14524 whole entry): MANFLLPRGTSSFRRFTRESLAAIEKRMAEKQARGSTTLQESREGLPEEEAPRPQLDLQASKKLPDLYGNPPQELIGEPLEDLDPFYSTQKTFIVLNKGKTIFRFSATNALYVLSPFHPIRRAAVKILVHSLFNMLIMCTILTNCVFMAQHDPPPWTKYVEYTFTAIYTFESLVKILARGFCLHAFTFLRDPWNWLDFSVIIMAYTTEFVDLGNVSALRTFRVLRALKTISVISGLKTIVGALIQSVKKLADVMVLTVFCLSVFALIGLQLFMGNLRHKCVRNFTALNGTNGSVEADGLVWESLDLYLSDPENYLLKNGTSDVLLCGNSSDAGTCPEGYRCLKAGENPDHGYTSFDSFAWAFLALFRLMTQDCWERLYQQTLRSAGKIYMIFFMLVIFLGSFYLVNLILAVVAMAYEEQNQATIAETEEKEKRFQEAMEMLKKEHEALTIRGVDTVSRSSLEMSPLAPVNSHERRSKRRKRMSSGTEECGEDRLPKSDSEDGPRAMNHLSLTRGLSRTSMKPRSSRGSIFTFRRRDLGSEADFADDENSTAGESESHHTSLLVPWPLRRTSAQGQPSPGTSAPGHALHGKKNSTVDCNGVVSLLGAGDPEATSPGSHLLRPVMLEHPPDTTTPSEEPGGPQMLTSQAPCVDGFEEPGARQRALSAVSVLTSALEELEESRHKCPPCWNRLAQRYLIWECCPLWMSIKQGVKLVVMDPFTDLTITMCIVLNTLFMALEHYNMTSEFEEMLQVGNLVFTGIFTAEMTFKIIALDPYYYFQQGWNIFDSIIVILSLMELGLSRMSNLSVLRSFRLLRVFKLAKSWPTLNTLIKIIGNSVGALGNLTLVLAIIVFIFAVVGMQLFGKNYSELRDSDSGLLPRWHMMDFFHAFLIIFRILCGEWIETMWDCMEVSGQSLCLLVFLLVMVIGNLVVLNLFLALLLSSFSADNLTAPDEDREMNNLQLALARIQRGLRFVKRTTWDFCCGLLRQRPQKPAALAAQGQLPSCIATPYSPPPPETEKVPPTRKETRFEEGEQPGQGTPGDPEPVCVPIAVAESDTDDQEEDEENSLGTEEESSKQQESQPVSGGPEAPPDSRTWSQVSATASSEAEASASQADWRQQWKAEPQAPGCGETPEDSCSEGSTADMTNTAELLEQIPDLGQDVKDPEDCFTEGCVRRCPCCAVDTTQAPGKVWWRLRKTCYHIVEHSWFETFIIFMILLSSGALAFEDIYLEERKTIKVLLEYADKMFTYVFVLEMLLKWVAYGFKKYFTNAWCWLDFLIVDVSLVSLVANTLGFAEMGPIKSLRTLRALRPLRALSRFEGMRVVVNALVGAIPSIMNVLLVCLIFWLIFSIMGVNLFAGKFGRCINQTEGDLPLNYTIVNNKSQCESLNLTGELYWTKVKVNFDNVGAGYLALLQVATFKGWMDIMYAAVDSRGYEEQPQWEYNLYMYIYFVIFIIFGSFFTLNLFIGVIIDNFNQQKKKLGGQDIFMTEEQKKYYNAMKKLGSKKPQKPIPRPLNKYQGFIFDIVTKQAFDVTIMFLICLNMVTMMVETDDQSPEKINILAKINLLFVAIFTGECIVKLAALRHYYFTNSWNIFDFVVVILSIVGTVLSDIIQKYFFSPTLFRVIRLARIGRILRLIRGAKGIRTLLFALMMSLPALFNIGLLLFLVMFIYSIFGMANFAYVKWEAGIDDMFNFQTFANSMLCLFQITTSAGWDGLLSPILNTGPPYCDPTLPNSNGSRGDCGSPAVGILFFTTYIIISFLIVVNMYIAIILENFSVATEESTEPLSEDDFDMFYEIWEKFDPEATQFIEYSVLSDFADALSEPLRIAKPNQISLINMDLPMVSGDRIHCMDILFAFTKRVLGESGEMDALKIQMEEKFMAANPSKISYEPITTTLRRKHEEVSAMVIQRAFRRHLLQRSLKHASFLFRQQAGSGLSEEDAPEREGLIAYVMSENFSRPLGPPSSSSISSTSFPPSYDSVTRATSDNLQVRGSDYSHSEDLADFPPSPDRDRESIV
Sequence of Cytochrome P450 2C9 (P11712 whole entry): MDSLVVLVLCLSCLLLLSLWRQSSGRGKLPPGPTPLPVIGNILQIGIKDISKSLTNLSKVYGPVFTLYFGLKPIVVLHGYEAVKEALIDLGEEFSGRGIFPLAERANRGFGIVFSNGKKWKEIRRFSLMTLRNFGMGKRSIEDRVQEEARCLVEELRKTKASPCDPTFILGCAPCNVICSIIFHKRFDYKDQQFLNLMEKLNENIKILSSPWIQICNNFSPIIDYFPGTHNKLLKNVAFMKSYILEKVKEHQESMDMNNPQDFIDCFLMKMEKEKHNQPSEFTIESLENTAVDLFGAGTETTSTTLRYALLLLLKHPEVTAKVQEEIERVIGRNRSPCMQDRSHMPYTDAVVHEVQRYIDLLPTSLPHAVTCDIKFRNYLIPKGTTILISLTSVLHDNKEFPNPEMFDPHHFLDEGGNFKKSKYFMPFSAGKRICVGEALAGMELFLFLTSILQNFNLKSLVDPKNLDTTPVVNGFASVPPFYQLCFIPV

As a reminder, the IC50 is the concentration that gives 50% inhibition. As a reminder, the logD is lipophilicity at a set pH, counting ionised and neutral species. `CNC(=O)N(c1ccc(S(=O)(=O)Nc2ncccn2)cn1)c1cc(Cl)c(-c2ccc(F)c(OC(F)(F)F)c2)cc1OC`: the 50% inhibitory concentration (IC50) against Cytochrome P450 3A4 [1] is 11 µM; against Cytochrome P450 3A4 [3], above 50 µM. The compound further registered a pH-dependent lipophilicity (logD) in data set [2] of 1.6.
One may read the clearance as the volume of plasma or blood freed of the substance per unit of time. In [4], `COc1cc(-c2ccc(Cl)c(C#N)c2)c(F)cc1-n1c(=O)ccc2cc(S(=O)(=O)Nc3ccon3)ccc21` returned a half-inhibitory concentration (IC50) of 0.008 µM. The CL free in [5] came out at 10100 mL/min/kg. Also, the clearance in data set [6] was 35 mL/min/kg.
Compound `COc1cc(-c2ccc(Cl)c(C)c2)ccc1N(C(C)=O)c1ccc(S(=O)(=O)Nc2ccon2)cn1` came in with an IC50 in data set [4] of 2.91 µM.
As for `CNC(=O)N(c1ccc(S(=O)(=O)Nc2ccon2)cn1)c1cc(Cl)c(-c2cc(F)c(F)c(F)c2)cc1OC`, the concentration for half-maximal inhibition (IC50) against Cytochrome P450 3A4 [1] and on Cytochrome P450 3A4 [3] was above 50 µM in each case. The compound also gave a logD in data set [2] of 0.7. Further, in data set [5], the CL free is 4770 mL/min/kg. This compound also gave a clearance in data set [6] of 33.3 mL/min/kg.
In general, inhibition refers to the change of the read-out against control, counted positive when it falls. In turn, `CNC(=O)C(c1ccc(S(=O)(=O)Nc2ccon2)cn1)c1ccc(-c2ccc(Cl)c(C)c2)cc1OC` (configuration not stated) had an inhibition in data set [7] of 4.9%.
Regarding `COc1ccc2cc([C@H](C)C(=O)O)ccc2c1` [NAPROXEN], the Activity in the data set on Mus musculus [8] is on record as 87%.
With `COc1cc(-c2ccc(Cl)c(C)c2)ccc1N(C(=O)NC(C)C)c1ccc(S(=O)(=O)Nc2ccon2)cn1`, the inhibition in data set [7] was found to be 3.9%.
As to `CNC(=O)N(c1ccc(S(=O)(=O)Nc2ccon2)cc1)c1ccc(-c2ccc(Cl)c(C)c2)cc1OC`, in data set [4], the half-maximal inhibitory concentration (IC50) turned out to be 3.8 µM. Further, the Papp in data set [9] stood at 1.5 ×10⁻⁶ cm/s. For the same compound, the CL free in data set [5] was 3000 mL/min/kg. In addition, the clearance in data set [6] is 22.2 mL/min/kg.
For the compound `CNC(=O)N(c1ccc(S(=O)(=O)Nc2ccon2)cn1)c1cc(Cl)c(-c2cccc(OCC(F)(F)F)c2)cc1OC`, the half-inhibitory concentration (IC50) was 35 µM on Cytochrome P450 3A4 [1] and above 50 µM at Cytochrome P450 3A4 [3].
For the compound `CN1CC[C@]23c4c5ccc(O)c4O[C@H]2[C@@H](O)C=C[C@H]3[C@H]1C5` [MORPHINE], the Activity with Mus musculus [10] worked out at 98%.
On to `CNC(=O)N(c1ccc(S(=O)(=O)Nc2ccon2)cn1)c1cc(Cl)c(-c2cc(OC)cc(C(F)(F)F)c2)cc1OC`, for which the figures for the half-inhibitory concentration (IC50) at Cytochrome P450 3A4 [1] and against Cytochrome P450 3A4 [3] were 17 µM and above 50 µM, respectively.
Usually AUC stands for the area under the concentration-time curve, a measure of exposure. Usually half-life stands for the time needed for the level to fall by half in the phase considered. For orientation: solubility means the concentration that dissolves in the medium under given conditions. With `CNC(=O)N(c1ccc(S(=O)(=O)Nc2ncccn2)cn1)c1cc(F)c(-c2ccc(F)c(OC(F)(F)F)c2)cc1OC`, the area under the curve (AUC) in [11] was 1150 µM·h; in [16] it was 212 µM·h; in [20], 200 µM·h. Also, the figures for the bioavailability in data set [12], in data set [21] and in data set [29] were 95%, 80% and 104%, respectively. The Activity in the data set with Mus musculus [13] came out at 63%; in the data set on Mus musculus [14], 83%; in the data set with Mus musculus [17] it was 55%; in the data set with Mus musculus [8], 89%; with Mus musculus [25] it was 95%. Further, the IC50 was above 50 µM against Cytochrome P450 3A4 [1], above 50 µM at Cytochrome P450 3A4 [3], 3.3 µM against Cytochrome P450 2C9 and 40 µM in data set [27]. The clearance in [15] is 1.67 mL/min/kg; in data set [6], 1.17 mL/min/kg; in data set [28], 0.25 mL/min/kg. Besides, the CL free in data set [18] is 183 mL/min/kg; in [19], 60 mL/min/kg; in data set [5], 733 mL/min/kg. Further, in [22], the Papp was found to be 18 ×10⁻⁶ cm/s. In [2], this compound had a logD of 1.4. The values for the half-life in data set [23], in data set [24] and in data set [26] were 18 h, 3.4 h and 4.6 h, respectively. Further, the activity at 10 µM on PXR (NR1I2) was determined as 3%. This compound registered a solubility in data set [30] of 260 µM (≈ 159 µg/mL).
Regarding `CNC(=O)N(c1ccc(S(=O)(=O)Nc2ccon2)cn1)c1cc(Cl)c(-c2ccc(F)c(OCC(F)(F)F)c2)cc1OC`, the IC50 against Cytochrome P450 3A4 [1] is above 50 µM; in data set [4], 0.023 µM; against Cytochrome P450 3A4 [3], above 50 µM. The compound further showed a logD in [2] of 0.9. In addition, the clearance in data set [6] is 91.7 mL/min/kg.
